# In patent US20230054887A1, “SWEETENING AND TASTE-MASKING COMPOSITIONS, PRODUCTS AND USES THEREOF” (HEALTHTECH BIO ACTIVES, S.L.U., priority 2017, published 2023):
# Values joined by “and” are separate entries in the source; they are usually repeats but may differ in a detail not shown here. Identical values can stand only once.
# What was measured:
# Format in all cases: in vivo
# [1] = Sucrose substitution in orange juice based soft drink, triangular testing by calibrated panel
# Description: The purpose of this example was to maximize the sugar substitution in an orange juice based soft drink while maintaining the same overall taste profile. A calibrated panel was not able to distinguish the reference from the different prototypes in triangular testing.
# The reference product (Formula 1 of Table 10) contained 10% added sucrose. The maximum sucrose substitution achieved with NHDC was 15% out of the initial 10 by using 10 ppm of NHDC (Formula 2 of Table 10). With the sweetening composition of the present invention, it was possible to increase the sucrose substitution, up to 25% without changing the taste profile of the beverage (Formula 3 of Table 10).
# The composition of each beverage is disclosed in Table 10. For the preparation of these beverages, an orange juice concentrate 65° Bx (Dallant) and orange flavor #2N341/C (Dallant) were used. All the percentages in the table are by weight.
# [2] = Taste profile by calibrated taste panel at concentrations equisweet to 3% sucrose; settings: 0- to 5-point scale
# Protocol: The overall taste profile achieved with the sweetening composition of the present invention was evaluated and compared with the target taste profile of sucrose.
# For this assay, all samples were evaluated at the same sweetness level, so each sample was used at a concentration which was equisweet to 3% sucrose. For each sample, the following parameters were evaluated: • Time to first sweetness detection • Time to maximum sweetness • Lingering (time for the sweetness to disappear) • Off-flavour: menthol, liquorice (any tastes that are different from sweetness) • Mouthfeel (density, i.e., the perceived viscosity in the mouth)
# These evaluations were carried out by a calibrated taste panel, and conducted at room temperature.
# Each of those parameters was evaluated on a 0- to 5-point scale. The values for sucrose were the reference, and were considered the target to emulate.
# [3] = Sweetening synergy sensory test: concentration equisweet to sucrose reference solutions in water, expert panel; settings: for Relative sweetening power: ratio sucrose concentration / equisweet concentration; for Equisweet concentration: room temperature
# Protocol: A sensory test was performed to assess the sweetening synergism achieved with the composition of the invention (Examples A and B), and this effect was also compared to the effect obtained with analogous compositions containing beta-cyclodextrin (Comparative Examples A and B). Further compositions of the present invention (Examples C, D and E) were also assessed in this sensory test.
# A group of expert panellists in sweet descriptors evaluated the sweetness of the different compositions as well as that of the ingredients NHDC, beta-cyclodextrin and gamma-cyclodextrin used alone.
# Each evaluated sweetening agent was dissolved in water at different concentrations, at room temperature. The panel then determined, for each product, the concentration that was equisweet to the reference solutions of 1% and 3% sucrose in water. The results are summarized in Table 3 (Examples A and B are abbreviated as Ex. A and Ex. B, respectively, and the Comparative Examples A and B are abbreviated as Comp. A and Comp. B, respectively).
# Since beta- and gamma-cyclodextrins are also sweet compounds, the equisweet concentrations of both cyclodextrins were also determined by the test panel to assess their possible contribution to the sweetness of the composition. […] Therefore, as the equisweet concentrations of both cyclodextrins are at least three orders of magnitude larger than those of NHDC, it was concluded that their contribution to the sweetness was negligible.
# A more quantitative evaluation of the sweetness synergy provided by the compositions of the present invention was performed by comparing the real measured sweetness of the compositions comprising gamma-cyclodextrin and NHDC with the theoretical sweetness expected from the sum of the individual contribution of each component in the composition.
# To this end, the relative sweetening power of each component was first calculated. For comparative purposes, the relative sweetening power of beta-cyclodextrin was also calculated. The relative sweetening power of a given compound, at a given sweetness level, indicates how many times sweeter this compound is than sucrose. It is therefore calculated as the ratio between the concentration of sucrose and the equisweet concentration of each ingredient, for each sweetness level.
# From the relative sweetening power of each ingredient, it is possible to calculate the expected sweetness (sucrose equivalence) of a blend of those ingredients, according to Formula I:
# Expected sweetness (sucrose equivalence) of a blend C1+C2=Concentration of compound C1×relative sweetening power of compound C1+Concentration of compound C2×relative sweetening power of compound C2
# Then, the sweetness synergy of a blend of components can be calculated according to Formula II: […]
# As disclosed above in Example 3, the relative sweetening power of a given compound, at a given sweetness level, indicates how many times sweeter than sucrose the compound is, and the value is calculated as the ratio between the concentration of sucrose and the equisweet concentration of the compound.
compound,measurement,setting,value
"COc1ccc(CCC(=O)c2c(O)cc(O[C@@H]3O[C@H](CO)[C@@H](O)[C@H](O)[C@H]3O[C@@H]3O[C@@H](C)[C@H](O)[C@@H](O)[C@H]3O)cc2O)cc1O [NHDC, 1-[4-[[2-O-(6-Deoxy-α-L-mannopyranosyl)-β-D-glucopyranosyl]oxy]-2,6-dihydroxyphenyl]-3-(3-hydroxy-4-methoxyphenyl)propan-1-one]",Amount used for the maximum sucrose substitution,[1],10 ppm
same,Maximum sucrose substitution without changing the taste profile,[1]; reference with 10% added sucrose,15%
same,Lingering,[2],4.00
same,Mouthfeel (density),[2],1.75
same,"Off-flavour: menthol, licorice",[2],3.25
same,Time to first sweetness,[2],3.75
same,Time to maximum sweetness,[2],4.25
same,Total sweetness,[2],5.00
same,Relative sweetening power,[3]; 1% sucrose level,2000
same,NHDC amount contained in the equisweet concentration,[3]; 1% sucrose sweetness level,(5.0) ppm
same,Relative sweetening power,[3]; 3% sucrose level,1250
same,NHDC amount contained in the equisweet concentration,[3]; 3% sucrose sweetness level,(24.0) ppm
same,Equisweet concentration,[3]; equisweet to 1% sucrose in water,5 ppm and 5.0 ppm
same,Equisweet concentration,[3]; equisweet to 3% sucrose in water,24 ppm and 24.0 ppm
